Source: publication PMC11487561 (ACS Chemical Neuroscience, 2024)

Assays:
[1] = Intrinsic clearance in rat liver microsomes; type: in vitro ADME
Experimental: Intrinsic Clearance in Rat and Human Liver Microsomes
The in vitro intrinsic clearance (CL int) was investigated in commercially obtained hepatic microsomes from rat and human donors using the substrate depletion (i.e., loss-of-parent vs. time, or t 1/2 method) approach with analyte detection via liquid chromatography-tandem mass spectrometry (LC-MS/MS). For each species, mean %parent remaining values at each time point were calculated from replicates raw data (analyte:IS peak area ratios) and used to determine in vitro t 1/2 and CLint.
Experiments were carried out using a robot-assisted (TECAN model Evo 200). Compound was incubated (1 µM final concentration) in buffer (100 mM potassium phosphate pH 7.4 with 3 mM MgCl2) containing hepatic microsomes (0.5 mg/mL final concentration) from multiple species, discretely, at 37 °C under constant orbital shaking. After 5 minutes (pre-incubation), reactions were initiated by addition of nicotinamide adenine dinucleotide phosphate (NADPH, 1 mM final concentration). At selected time intervals (0, 3, 7, 15, 25, and 45 minutes) post-addition of NADPH, aliquots (50 µL) were taken and placed into a 96-shallow-well plate containing ice cold acetonitrile (150 µL) with carbamazepine (IS, 50 nM). The plates were then centrifuged (3000 rcf at 4 °C) for 10 minutes. The supernatants were transferred to a new 96-shallow-well daughter plate and diluted (1:1 v/v) with water (Milli-Q filtered). The plates were then sealed in preparation for LC-MS/MS analysis (see below).
Raw LC-MS/MS peak area data generated from the assay samples were used to construct natural log-transformed %parent remaining vs. time plots (using t = 0 minute post-NADPH addition sample data as starting point set to 100%). In vitro compound half-life (t 1/2) values were obtained using the following […]
k is the slope from linear regression analysis of the natural log-transformed data (using means from Where all replicates at each time point). Resulting t 1/2 values were then used to calculate hepatic CLint values according to the following equation and with the use of species-specific scale-up factors for liver weight (grams) per total body weight (kg): […]
CLint = in vitro t1/2 x 0.5 mg microsomes x 1 gram liver x kg body wt aScale-up factors used are 45 (rat) and 20 (human).2
Predicted hepatic clearance (CLhep) was calculated using the following equation: […]
Qh represents hepatic blood flow (mL/min/kg): 21 for human, 70 for rat, and 90 for mouse.
Prepared samples were injected (10 µL each) onto an AB Sciex Triple Quad 4500 mass spectrometer system with an Agilent 1260 Infinity II pump and autosampler. Mass spectrometer conditions are described in Table S1. Quantitation of compounds was performed via AB Sciex Multiquant software using the raw analyte:IS peak area ratios. The typical detection range was 0.5 ng/mL to ≥ 5,000 ng/mL utilizing a quadratic equation regression with 1/x2 weighting. […]
Table S1. LC-MS/MS Conditions*
Mobile phase A 0.5% Formic Acid in Water
Mobile phase B 0.5% Formic Acid in Acetonitrile
Gradient Time % Mobile Phase B

In vivo rat iv/po PK = details: male, Sprague-Dawley, plasma, rat (SD); for bioavailability: rat, po
Experimental: Intravenous pharmacokinetics and plasma-brain level determination (IV PK PBL) VU6016235 […]
Dawley rats (n = 1; 342 gram body weights) via injection into a surgically-implanted jugular vein catheter. […] Blood samples were collected serially from a surgically implanted carotid artery catheter in each animal over multiple post-administration time points (0.033, 0.117, 0.25, 0.5, 1, 2, 4, 7, and 24 hours) into chilled, K2EDTA anticoagulant-fortified tubes and immediately placed on wet ice. […]
For PO PK studies, VU6016235 was formulated in 10% Tween 80 in water and administered orally as a single dose of 10 mg/kg to male Sprague Dawley rats (10 ml/kg, n=2) that were fasted overnight. […]
anticoagulant-fortified tubes and immediately placed on wet ice. The blood samples were then centrifuged (1700 rcf, 5 minutes, 4 °C) in order to obtain plasma samples, which were stored at -80 °C until analysis […]
Samples preparation for bioanalysis
Plasma samples from the in-life phase of the study were thawed at ambient temperature (benchtop), and then aliquots (20 µL per sample) were transferred to a 96-shallow-well (V-bottom) plate. Matrix-matched quality control (QC) samples and a standard curve of […] (1 mg/mL DMSO stock solution) were prepared in blank rat plasma (K2EDTA-treated) or blank brain homogenate via serial dilution and transferred (20 µL each) to the plate along with multiple blank plasma and brain homogenate samples. Acetonitrile (120 µL) containing IS (10 nM carbamazepine) was added to each well of the plate to precipitate protein. The plate was then centrifuged (4000 rcf, 5 minutes, ambient temperature), and resulting supernatants (60 µL each) were transferred to a new 96-shallow-well (V-bottom) plate containing an equal volume (60 µL per well) of water (Milli-Q purified). […]
The plasma standard curve and QCs were used for compounds quantitation in brain.
Binding in plasma from rat and human.
Determination of compounds’ fraction unbound (f u) in plasma from rat and human was conducted in vitro via equilibrium dialysis using HTDialysis membrane plates. Dialysis membranes (four paired strips per HTD assay) were hydrated as described by the manufacturer and inserted into the HTD plate, which was assembled and prepared for sample addition by the dispensing of blank buffer (DPBS, 100 µL/well) into the ‘top half’ of each membrane-split well. Each compound was diluted into plasma from each species (5 µM final concentration), which was aliquoted in triplicate to the ‘bottom half’ of the prepared HTD plate wells. The HTD plate was sealed and incubated for 6 hours at 37 °C. Following incubation, each well (both top and bottom halves) were transferred (20 µL) to the corresponding wells of a 96-shallow-well (V-bottom) plate. The daughter plates were then matrix-matched (buffer side wells received equal volume of plasma, and plasma side wells received equal volume of buffer), and extraction solution (120 µL; acetonitrile containing 50 nM carbamazepine as IS) was added to all wells of both daughter plates to precipitate protein and extract test article. The plates were then sealed and centrifuged (3500 rcf) for 10 minutes at ambient temperature. Supernatant (60 µL) from each well of the daughter plates was then transferred to the corresponding wells of new daughter plates (96-shallow-well, V bottom) containing water (Milli-Q, 60 µL/well), and the plates were sealed in preparation for LC-MS/MS analysis (see below). fu was calculated as (analyte to IS MS peak area ratio from Trans-buffer side) / (analyte to IS MS peak area ratio from Cis-plasma side). Mean values for each species were calculated from 3 replicates.

Tachykinin NK1 = Tachykinin NK1 (Homo sapiens, UniProt P25103); test: Lead Profiling Screen – Eurofins Panlabs; type: binding; details: read-out: % inh at 10 μM
Tachykinin NK1, sequence (P25103 whole entry): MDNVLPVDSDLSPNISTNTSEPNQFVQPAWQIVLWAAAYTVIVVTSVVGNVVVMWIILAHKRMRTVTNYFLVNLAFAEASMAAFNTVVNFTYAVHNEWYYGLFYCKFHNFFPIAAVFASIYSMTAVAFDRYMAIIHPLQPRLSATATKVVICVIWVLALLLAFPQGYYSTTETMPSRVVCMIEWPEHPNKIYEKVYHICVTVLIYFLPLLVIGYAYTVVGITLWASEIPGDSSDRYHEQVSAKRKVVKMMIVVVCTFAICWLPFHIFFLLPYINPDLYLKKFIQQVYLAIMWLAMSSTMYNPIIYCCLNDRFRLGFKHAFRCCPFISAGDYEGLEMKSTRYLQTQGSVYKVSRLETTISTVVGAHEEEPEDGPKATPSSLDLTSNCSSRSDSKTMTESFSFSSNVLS

Cc1nc(C)c2c(n1)sc1c(NCc3ccc(C(C)(C)O)cc3)nccc12 [22g]
CLint scaled at 1 µM ([1]; pH 7.4, rat liver microsomes): 78 mL/min/kg
CLhep, rat ([1]; predicted hepatic clearance from microsomal CLint): 37 mL/min/kg
MRT (In vivo rat iv/po PK; iv 1.0 mg/kg): 4.3 h
half-life (In vivo rat iv/po PK; iv 1.0 mg/kg): 3.4 h
clearance (In vivo rat iv/po PK; iv 1.0 mg/kg, read-out: CLp): 4.9 mL/min/kg
Vd (In vivo rat iv/po PK; iv 1.0 mg/kg, read-out: Vss): 1.3 L/kg
AUC(0-inf) (In vivo rat iv/po PK; po 3.0 mg/kg): 8410 ng·h/mL
Cmax (In vivo rat iv/po PK; po 3.0 mg/kg): 657 ng/mL
Tmax (In vivo rat iv/po PK; po 3.0 mg/kg): 3 h
AUC(0-inf) (In vivo rat iv/po PK; po 30.0 mg/kg): 59200 ng·h/mL
Cmax (In vivo rat iv/po PK; po 30.0 mg/kg): 4460 ng/mL
Tmax (In vivo rat iv/po PK; po 30.0 mg/kg): 5 h
bioavailability (In vivo rat iv/po PK; 3 mg/kg, po 3.0 mg/kg): ≥ 100%
bioavailability (In vivo rat iv/po PK; 30 mg/kg, po 30.0 mg/kg): 84%
inhibition at 10 µM (Tachykinin NK1): 8%
